Each structure is given as a SMILES string. Values joined by “and” are separate entries in the source; they are usually repeats but may differ in a detail not shown here. Identical values can stand only once.

One test concerns MAO-B. On the set-up: method as in PMID 26337020, PMID 28577983. Particulars: previously tested; ref [19],[23]; cited from earlier work.
Test [1] deals with A2780 (human ovarian carcinoma cells). Briefly: Cell growth assay (trypan blue), A2780. In kind it is cell-based. Conditions: A2780, 72 h of incubation.
In test [2] the test system is HT-29 (human colorectal adenocarcinoma). Briefly: Cell growth assay (trypan blue), HT-29. Particulars: HT-29, 72 h of incubation. In kind it is cell-based.
For a further test, the target named is T1, human recombinant MAO-B (Homo sapiens, UniProt P27338).
T1 sequence (P27338 1-520): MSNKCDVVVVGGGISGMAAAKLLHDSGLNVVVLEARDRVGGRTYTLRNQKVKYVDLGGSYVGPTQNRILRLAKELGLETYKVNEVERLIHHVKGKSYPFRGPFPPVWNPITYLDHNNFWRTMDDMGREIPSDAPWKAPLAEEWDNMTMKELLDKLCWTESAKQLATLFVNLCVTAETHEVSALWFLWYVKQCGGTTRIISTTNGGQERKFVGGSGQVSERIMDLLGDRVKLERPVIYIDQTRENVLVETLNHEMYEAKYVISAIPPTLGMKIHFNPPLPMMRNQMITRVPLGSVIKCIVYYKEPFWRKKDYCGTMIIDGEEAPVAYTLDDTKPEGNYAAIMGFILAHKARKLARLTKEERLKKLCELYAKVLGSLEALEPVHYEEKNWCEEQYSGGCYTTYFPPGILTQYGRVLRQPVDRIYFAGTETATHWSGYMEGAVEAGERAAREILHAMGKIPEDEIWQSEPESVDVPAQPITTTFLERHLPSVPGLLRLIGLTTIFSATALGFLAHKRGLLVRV
Briefly: Monoamine oxidase inhibition assay (Amplex Red, kynuramine), MAO-B. Conditions: for mode of inhibition: Lineweaver–Burk double-reciprocal plots, MAO-B; for Ki: read-out: Ki MAO-B, kynuramine substrate, pH 7.4, 37°C.

The test system of test [3] is Met-5A (human mesothelial cells). Nature of the test: Cell growth assay (trypan blue), Met-5A. In kind it is cell-based. Particulars: nontumorigenic Met-5A mesothelial cells. From the text: fluorescence measurements.
prepared in dimethylsulfoxide.
performed to determine cell viability.
µM of maxima concentrations tested).
The mode of inhibition was […]

A further test addresses T2, human recombinant MAO-A (Homo sapiens, UniProt P21397).
T2 sequence (P21397 1-527): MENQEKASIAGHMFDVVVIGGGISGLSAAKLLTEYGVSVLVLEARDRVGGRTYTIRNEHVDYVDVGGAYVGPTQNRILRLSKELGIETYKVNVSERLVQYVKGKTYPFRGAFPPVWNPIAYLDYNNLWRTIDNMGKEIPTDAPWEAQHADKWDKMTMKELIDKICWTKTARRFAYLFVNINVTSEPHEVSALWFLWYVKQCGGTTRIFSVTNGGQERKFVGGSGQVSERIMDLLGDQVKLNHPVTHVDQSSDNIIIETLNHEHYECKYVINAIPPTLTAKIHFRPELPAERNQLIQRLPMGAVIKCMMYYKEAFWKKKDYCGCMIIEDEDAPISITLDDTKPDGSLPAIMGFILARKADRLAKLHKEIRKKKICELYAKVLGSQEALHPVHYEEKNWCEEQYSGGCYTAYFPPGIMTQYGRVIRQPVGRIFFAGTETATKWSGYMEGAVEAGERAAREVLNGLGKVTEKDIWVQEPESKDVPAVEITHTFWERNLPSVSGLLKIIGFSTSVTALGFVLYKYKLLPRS
Nature of the test: Monoamine oxidase inhibition assay (Amplex Red, kynuramine), MAO-A. Conditions: read-out: Ki MAO-A; kynuramine substrate, pH 7.4, 37°C.

Test [4] deals with recombinant MAO-A or MAO-B. Briefly: Reversibility assay (dialysis/ultrafiltration). In kind it is biochemical, human. Particulars: incubated at 4 times the Ki value for 20 min before dialysis.

Experimental for human recombinant MAO-A: (§1) Materials. Human recombinant MAO-A and MAO-B were expressed in baculovirus infected BT1 cells (5 mg/ml) and horseradish peroxidases were purchased from Fluka-Sigma-Aldrich s.r.l. (Italy). A Cary-Eclipse fluorimeter (Varian Inc., Palo Alto, CA, USA) was employed for fluorescence measurements.
(§2) Monoamine oxidase inhibition assay. Monoamine oxidase activity was determined by measuring H2O2 generation rate by a peroxidase-coupled continuous assay, using the Amplex Red reagent as fluorogenic substrate for horseradish peroxidase.1 All experiments were carried out as previously reported,2 in 100 mM potassium phosphate buffer, 0.1 mM EDTA, pH 7.4 and at 37°C. The assays were carried out in a final volume of 800 L, in the presence of Amplex Red (100 M) and horseradish peroxidase type II (5 UmL -1), and using kynuramine (20-1200 M) as common MAO-A and MAO-B substrate. h-MAO-A and h-MAO-B concentration in the assay solutions were 3 and 6 g/ml, respectively. After 5 min of pre-incubation of the enzyme with the compounds, substrate was added and the initial rates of reaction were recorded. The rates of the enzymatic reaction were determined by detecting the increase in the fluorescence intensity at
(§3) The generation rate of H2O2 was calculated from the increase of fluorescence intensity by means of calibration curves obtained using standard solution of H2O, in
M of maxima concentrations tested).
(§4) Steady state kinetic parameters (V max and K m) were calculated by fitting the Michaelis-Menten equation to the experimental data (initial velocity vs substrate concentrations), with Sigma Plot software, version 9.0 (Jandel Scientific, San Rafael, CA, USA). The mode of inhibition was determined by global fit analysis (GraphPad 9.0 software, GraphPad Software, San Diego, CA,
(§5) USA) of the initial velocity (V0) vs substrate concentration plots, at various inhibitor concentrations. The competitive, mixed, non-competitive and uncompetitive inhibition models were analysed and the fit giving the highest r2 value was chosen for the calculation of inhibition
(§6) compounds, experimental data are presented as double reciprocal Lineweaver-Burk plots (1/v vs 1/S). Ki values are expressed as mean ±S.D. All experiments were carried out at least in
Experimental for human recombinant MAO-B: as §1, §2, §3
M of maxima concentrations tested).
as §4, §5, §6

As usually defined, the GI50 is the concentration at which growth is held to half of that of the control. In the case of `COc1cccc(C(=O)/C=C/c2ccccc2)c1` [Compound 16], the “inhibitory potency on MAO-B” value in the test with MAO-B is on record as “lower inhibitory potency than for 17”. For the same compound, the concentration for 50% growth inhibition (GI50) in test [1] came to 8 ± 0.1 µM; in test [2] it was 14.7 ± 2.5 µM.
For the compound `O=C(/C=C/c1ccc([N+](=O)[O-])cc1)c1ccccc1` [Compound 3], the concentration for 50% growth inhibition (GI50) in test [1] came out at 7.5 ± 1.3 µM; in test [2], 15.5 ± 3.9 µM.
As for `O=C(/C=C/c1ccc(C(F)(F)F)cc1)c1ccccc1` [Compound 6], the GI50 came out at 14 ± 0.9 µM in test [1] and 12.2 ± 0.4 µM in test [2].
Consider `C[C@H](NCc1ccc(OCc2cccc(F)c2)cc1)C(N)=O` [safinamide, reference compound], for which the mode of inhibition result on human recombinant MAO-B is on record as “standard competitive inhibitor”. Also, the GI50 in test [3], in test [1] and in test [2] was more than 20 µM each time.
With `COc1ccc(/C=C/C(=O)c2ccccc2)cc1` [Compound 9], the GI50 in test [1] turned out to be 14.4 ± 3.5 µM; in test [2] it was 16.7 ± 2.5 µM.
On to `O=C(/C=C/c1ccccc1C(F)(F)F)c1ccccc1` [Compound 4], for which the values for the 50% growth inhibitory concentration (GI50) in test [1] and in test [2] were 7.2 ± 0.3 µM and 11.7 ± 3.6 µM, respectively.
Consider `COc1ccccc1/C=C/C(=O)c1ccccc1` [Compound 7], for which the figures for the GI50 in test [1] and in test [2] were 13.8 ± 0.3 µM and 13 ± 4 µM, respectively.
Taken in the same sequence, the figures for `O=C(/C=C/c1ccccc1)c1cccc([N+](=O)[O-])c1` [Compound 11] were 4.3 ± 1.5 µM and 9 ± 0.1 µM.
Usually Ki stands for a dissociation constant, usually derived from enzyme kinetics or from competition with a known ligand. Turning to `O=C(/C=C/c1cccc([N+](=O)[O-])c1)c1ccccc1` [Compound 2], the Ki at human recombinant MAO-B turned out to be 0.071 ± 0.011 µM; at human recombinant MAO-A it was 2.5 µM. Further, the GI50 amounted to 2.8 ± 0.3 µM in test [1] and 5 ± 1.8 µM in test [2].
On to `COc1cccc(/C=C/C(=O)c2ccccc2)c1` [Compound 8], for which the results for the 50% growth inhibitory concentration (GI50) in test [1] and in test [2] were 13.2 ± 2.2 µM and 14.5 ± 0.7 µM, respectively.
With `COc1ccccc1C(=O)/C=C/c1ccccc1` [Compound 15], in the test on MAO-B, the “inhibitory potency on MAO-B” value is “lower inhibitory potency than for 17”. Further, the GI50 is 7.3 ± 1.1 µM in test [1] and 14.8 ± 2 µM in test [2].
For the compound `O=C(/C=C/c1ccccc1)c1ccccc1[N+](=O)[O-]` [Compound 10], the GI50 in test [1] is 5.8 ± 0.8 µM; in test [2], 8.3 ± 1.4 µM.
In the case of `O=C(/C=C/c1ccccc1)c1cccc(C(F)(F)F)c1` [Compound 13], the mode of inhibition entry at human recombinant MAO-B is recorded as “competitive mode of inhibition”. Moreover, the inhibition constant Ki came to 0.005 ± 0.0005 µM on human recombinant MAO-B and 4.6 µM at human recombinant MAO-A. The 50% growth inhibitory concentration (GI50) in test [3], in test [1] and in test [2] was more than 20 µM throughout. Further, the “MAO activity after dialysis (reversibility)” value in test [4] is on record as “fully recovered”.
`O=C(/C=C/c1ccccc1[N+](=O)[O-])c1ccccc1` [Compound 1]: at human recombinant MAO-B, the mode of inhibition entry is “competitive behavior”. In addition, the inhibition constant Ki at human recombinant MAO-B was determined as 0.4 ± 0.08 µM; on human recombinant MAO-A, 2.2 µM. The GI50 in test [1] and in test [2] was more than 20 µM in each case.
As for `COc1ccc(C(=O)/C=C/c2ccccc2)cc1` [Compound 17], the Ki at human recombinant MAO-B was 0.022 µM and 0.0219 µM; at human recombinant MAO-A it was 13 µM. For the same compound, the results for the GI50 in test [3], in test [1] and in test [2] were approximately 11.8 µM, 6.8 ± 1 µM and 11.7 ± 3.7 µM, respectively.
Regarding `O=C(/C=C/c1ccccc1)c1ccccc1` [chalcone], on human recombinant MAO-B, the mode of inhibition result is given as “competitive behavior” and the inhibition constant Ki stood at 0.056 ± 0.006 µM. Besides, the GI50 in test [3] is approximately 7 µM. For the same compound, on human recombinant MAO-A, the Ki stood at 14.6 µM.
`O=C(/C=C/c1ccccc1)c1ccc(C(F)(F)F)cc1` [Compound 14]: on human recombinant MAO-B, the mode of inhibition entry is listed as “competitive behavior” and the inhibition constant (Ki) is 0.0146 ± 0.0001 µM. Also, on human recombinant MAO-A, the inhibition constant (Ki) came to 9.2 µM.
`O=C(/C=C/c1ccccc1)c1ccccc1C(F)(F)F` [Compound 12]: the GI50 was determined as 5.8 ± 2.9 µM in test [1] and 10.8 ± 0.4 µM in test [2].
Take `O=C(/C=C/c1cccc(C(F)(F)F)c1)c1ccccc1` [Compound 5]: the figures for the concentration for 50% growth inhibition (GI50) in test [1] and in test [2] were 10 ± 0.4 µM and 12.7 ± 3.2 µM, respectively.

Source of the values: article PMC8274062, “Promising Non-cytotoxic Monosubstituted Chalcones to Target Monoamine Oxidase-B” (ACS Medicinal Chemistry Letters, 2021).
